Laboratory results taken from ChEMBL document CHEMBL2429735, “Preparation of imidazoles as potent calcitonin gene-related peptide (CGRP) antagonists” (Bioorg Med Chem Lett, 2013).
pIC50: −log10 of the molar value.

Key:
Liver = experiment: Metabolic stability in mouse liver microsomes assessed as compound remaining; assay type: ADME, Microsome
Liver microsomes [1] = experiment: Metabolic stability in rat liver microsomes assessed as compound remaining; assay type: ADME, Microsome
Liver microsomes [2] = experiment: Metabolic stability in human liver microsomes assessed as compound remaining; assay type: ADME, Microsome
[3] = biological target: Calcitonin gene-related peptide type 1 receptor (Homo sapiens, UniProt O60894+Q16602); experiment: Antagonist activity at human CGRP receptor expressed in human SK-N-MC cells assessed as inhibition of CGRP-stimulated cAMP production; assay type: functional, cell-based
Sequence of Calcitonin gene-related peptide type 1 receptor (Q16602 whole entry, one chain of several): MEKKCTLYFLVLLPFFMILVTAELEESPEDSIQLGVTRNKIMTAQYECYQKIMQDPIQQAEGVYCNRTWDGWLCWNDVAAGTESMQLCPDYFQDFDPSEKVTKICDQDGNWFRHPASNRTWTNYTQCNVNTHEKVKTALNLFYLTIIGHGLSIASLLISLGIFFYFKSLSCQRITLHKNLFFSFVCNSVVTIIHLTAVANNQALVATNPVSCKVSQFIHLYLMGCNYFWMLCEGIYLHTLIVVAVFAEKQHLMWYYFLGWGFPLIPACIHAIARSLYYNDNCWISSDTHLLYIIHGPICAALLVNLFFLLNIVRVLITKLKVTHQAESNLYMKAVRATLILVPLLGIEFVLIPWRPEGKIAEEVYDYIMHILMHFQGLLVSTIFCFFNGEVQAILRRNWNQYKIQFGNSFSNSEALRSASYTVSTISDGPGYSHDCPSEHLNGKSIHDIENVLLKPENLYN

[4] = Permeability of the compound by PAMPA method at pH 7.4; assay type: ADME; details: read-out: permeability

| Structure (SMILES) | Stability (Liver) [%] | Stability (Liver microsomes [1]) [%] | Stability (Liver microsomes [2]) [%] | pIC50 [3] | Papp [4] [×10⁻⁶ cm/s] |
| --- | --- | --- | --- | --- | --- |
| Cc1cc(CC(OC(=O)N2CCC(c3cc4ccccc4[nH]c3=O)CC2)c2ncc3n2CCN(C2CCCCC2)C3)cc2cn[nH]c12 (racemic) | 21 | 30 | 41 | – | – |
| Cc1cc(CC(NC(=O)N2CCC(N3Cc4ccccc4NC3=O)CC2)c2nc(Br)cn2Cc2cc(F)cc(F)c2)cc2cn[nH]c12 (racemic) | 93 | 100 | 100 | 9.41 | – |
| Cc1cc(CC(NC(=O)N2CCC(N3Cc4ccccc4NC3=O)CC2)c2nccn2Cc2ccc(F)cc2)cc2cn[nH]c12 (racemic) | – | – | – | 9.01 | – |
| Cc1cc(CC(NC(=O)N2CCC(N3Cc4ccccc4NC3=O)CC2)c2ncc(Br)[nH]2)cc2cn[nH]c12 (racemic) | – | – | – | 8.13 | – |
| Cc1cc(CC(NC(=O)N2CCC(N3Cc4ccccc4NC3=O)CC2)c2nccn2Cc2cc(F)cc(F)c2)cc2cn[nH]c12 (racemic) | 66 | 78 | 84 | 9.41 | – |
| Cc1cc(C[C@@H](NC(=O)N2CCC(N3Cc4cccc(F)c4NC3=O)CC2)C(=O)N2CCC(N3CCCCC3)CC2)cc2cn[nH]c12 | – | – | – | 10.59 | 1.1 |
| Cc1cc(CC(NC(=O)N2CCC(N3Cc4ccccc4NC3=O)CC2)c2ncc[nH]2)cc2cn[nH]c12 (racemic) | – | – | – | 7.01 | – |
| Cc1cc(CC(NC(=O)N2CCC(N3Cc4ccccc4NC3=O)CC2)c2ncc(C)n2Cc2cccc(F)c2)cc2cn[nH]c12 (racemic) | 85 | 87 | 100 | 9.43 | – |
| Cc1cc(CC(NC(=O)N2CCC(N3Cc4ccccc4NC3=O)CC2)c2nccn2Cc2cccc(F)c2)cc2cn[nH]c12 (racemic) | – | – | – | 9.20 | – |
| Cc1cc(CC(OC(=O)N2CCC(c3cc4ccccc4[nH]c3=O)CC2)c2ncc3n2CCNC3)cc2cn[nH]c12 (racemic) | – | – | – | 8.54 | – |

Now from value to compound:

| Stability (Liver) [%] | Stability (Liver microsomes [1]) [%] | Stability (Liver microsomes [2]) [%] | pIC50 [3] | Papp [4] [×10⁻⁶ cm/s] | Structure (SMILES) |
| --- | --- | --- | --- | --- | --- |
| 9 | 32 | 41 | – | – | Cc1cc(CC(OC(=O)N2CCC(c3cc4ccccc4[nH]c3=O)CC2)c2ncc3n2CCN(Cc2ccccc2)C3)cc2cn[nH]c12 (racemic) |
| 2 | 20 | 4 | 9.38 | – | Cc1cc(CC(NC(=O)N2CCC(N3Cc4ccccc4NC3=O)CC2)c2nccn2Cc2cccnc2)cc2cn[nH]c12 (racemic) |
| – | – | – | 6.92 | – | Cc1c[nH]c(C(Cc2cc(C)c3[nH]ncc3c2)NC(=O)N2CCC(N3Cc4ccccc4NC3=O)CC2)n1 (racemic) |
| – | – | – | 9.08 | – | Cc1cc(CC(NC(=O)N2CCC(N3Cc4ccccc4NC3=O)CC2)c2nccn2Cc2ccncc2)cc2cn[nH]c12 (racemic) |
| – | – | – | 8.32 | – | Cc1cc(CC(NC(=O)N2CCC(N3Cc4ccccc4NC3=O)CC2)c2nc(Br)c(Br)[nH]2)cc2cn[nH]c12 (racemic) |
| – | – | – | 9.06 | – | Cc1cc(CC(NC(=O)N2CCC(N3Cc4ccccc4NC3=O)CC2)c2nccn2CCc2ccccc2)cc2cn[nH]c12 (racemic) |
| – | – | – | 8.32 | – | Cc1cc(CC(NC(=O)N2CCC(N3Cc4ccccc4NC3=O)CC2)c2nccn2C)cc2cn[nH]c12 (racemic) |
| – | – | – | 9.11 | – | Cc1cc(CC(NC(=O)N2CCC(N3Cc4ccccc4NC3=O)CC2)c2nccn2Cc2ccccc2)cc2cn[nH]c12 (racemic) |
| 0 | 1 | 1 | 8.80 | – | Cc1cc(CC(NC(=O)N2CCC(N3Cc4ccccc4NC3=O)CC2)c2nccn2Cc2ccccn2)cc2cn[nH]c12 (racemic) |
| 0 | 2 | 2 | 10.11 | 3.8 | Cc1cc(Cn2ccnc2C(Cc2cc(C)c3[nH]ncc3c2)NC(=O)N2CCC(N3Cc4ccccc4NC3=O)CC2)cc(Cl)n1 (racemic) |
| 1 | 2 | 1 | 9.89 | – | Cc1cc(Cn2ccnc2C(Cc2cc(C)c3[nH]ncc3c2)NC(=O)N2CCC(N3Cc4ccccc4NC3=O)CC2)ccn1 (racemic) |
| – | – | – | 9.72 | – | Cc1cc(CC(NC(=O)N2CCC(N3Cc4ccccc4NC3=O)CC2)c2nccn2Cc2ccc(C(C)(C)C)cc2)cc2cn[nH]c12 (racemic) |
| – | – | – | 8.72 | – | Cc1cc(CC(NC(=O)N2CCC(N3Cc4ccccc4NC3=O)CC2)c2nccn2Cc2ccccc2F)cc2cn[nH]c12 (racemic) |
